Reference: ChEMBL document CHEMBL1909616, “Identification of 4-quinolone derivatives as inhibitors of reactive oxygen species production from human umbilical vein endothelial cells” (Bioorg Med Chem Lett, 2011)
Converted amounts (≈) assume the structure as drawn.

Legend:
[1] = Intrinsic clearance in human liver microsomes at 0.2 uM; format: ADME, Microsome
[2] = Aqueous solubility of the compound at pH 6.8; format: physicochemical; conditions: aqueous medium
[3] = Intrinsic clearance in mouse liver microsomes at 0.2 uM; format: ADME, Microsome
[4] = Volume of distribution at steady state in Sprague-Dawley rat at 0.3 mg/kg, iv; format: ADME, organism-based; design: dose 0.3 mg/kg, route intravenous; conditions: in vivo, read-out: Vdss
[5] = Total clearance in Sprague-Dawley rat at 0.3 mg/kg, iv; format: ADME, organism-based; design: dose 0.3 mg/kg, route intravenous; conditions: in vivo
[6] = AUC (0 to 24 hrs) in Sprague-Dawley rat at 0.3 mg/kg, iv; format: ADME, organism-based; design: time < 24 hr, dose 0.3 mg/kg, route intravenous; conditions: plasma
[7] = AUC (0 to 24 hrs) in Sprague-Dawley rat at 3 mg/kg, po; format: ADME, organism-based; design: time < 24 hr, dose 3 mg/kg, route oral; conditions: plasma
[8] = Tmax in Sprague-Dawley rat at 3 mg/kg, po; format: ADME, organism-based; design: dose 3 mg/kg, route oral; conditions: in vivo
[9] = Cmax in Sprague-Dawley rat at 3 mg/kg, po; format: ADME, organism-based; design: dose 3 mg/kg, route oral; conditions: in vivo
[10] = Half life in Sprague-Dawley rat at 0.3 mg/kg, iv; format: ADME, organism-based; design: dose 0.3 mg/kg, route intravenous; conditions: in vivo
[11] = Oral availability in Sprague-Dawley rat at 3 mg/kg; format: ADME, organism-based; design: dose 3 mg/kg; conditions: in vivo
[12] = Cmax in Sprague-Dawley rat at 1 mg/kg, po; format: ADME, organism-based; design: dose 1 mg/kg, route oral; conditions: in vivo
[13] = Oral availability in Sprague-Dawley rat at 1 mg/kg; format: ADME, organism-based; design: dose 1 mg/kg; conditions: in vivo
[14] = Tmax in Sprague-Dawley rat at 1 mg/kg, po; format: ADME, organism-based; design: dose 1 mg/kg, route oral; conditions: in vivo
[15] = AUC (0 to 24 hrs) in Sprague-Dawley rat at 1 mg/kg, po; format: ADME, organism-based; design: time < 24 hr, dose 1 mg/kg, route oral; conditions: plasma

| Compound | CLint scaled at 0.2 µM [1] [mL/min/kg] | solubility [2] [µM] | CLint scaled at 0.2 µM [3] [mL/min/kg] | further results |
| --- | --- | --- | --- | --- |
| CCCCCC/C=C/Cc1[nH]c2ccccc2c(=O)c1C | > 1000 | < 1 | > 1000 |  |
| CCCCCCCCCc1[nH]c2ccccc2c(=O)c1C | > 1000 | < 1 | > 1000 |  |
| CCCCOc1cccc(OCc2[nH]c3ccccc3c(=O)c2C)c1 | > 1000 | < 1 | > 1000 |  |
| Cc1c(COc2cccc(OCCCC(F)(F)F)c2)nc2ccccc2c1O | 257 | < 1 | > 1000 |  |
| COC(C)(C)CCOc1cccc(OCc2[nH]c3ccccc3c(=O)c2C)c1 | > 1000 | 2 (≈ 0.763 µg/mL) | > 1000 |  |
| Cc1c(COc2cccc(OCC3CCOCC3)c2)[nH]c2ccccc2c1=O | 214 | 5 (≈ 1.9 µg/mL) | 420 | Vd [4]: 2.3 L/kg; clearance [5]: 26 mL/min/kg; AUC(0-t) at 24 h [6]: 196 ng·h/mL; AUC(0-t) at 24 h [7]: 526 ng·h/mL; Tmax [8]: 0.22 h; Cmax [9]: 196 ng/mL; half-life [10]: 1.8 h; bioavailability [11]: 27% |
| O=c1c(Cl)c(COc2cccc(OCC3CCOCC3)c2)[nH]c2ccccc12 | 460 | 2 (≈ 0.8 µg/mL) | > 1000 |  |
| Cc1ccc2[nH]c(COc3cccc(OCC4CCOCC4)c3)c(C)c(=O)c2c1 |  | < 1 |  |  |
| COc1ccc2[nH]c(COc3cccc(OCC4CCOCC4)c3)c(C)c(=O)c2c1 |  | < 1 |  |  |
| Cc1c(COc2cccc(OCC3CCOCC3)c2)[nH]c2ccc(C(=O)O)cc2c1=O | < 20 | ≥ 100 | < 50 |  |
| Cc1c(COc2cc(OCC3CCOCC3)ccn2)[nH]c2ccccc2c1=O | 113 | 36 (≈ 13.7 µg/mL) | 312 |  |
| Cc1c(COc2cc(OCCC(C)(C)O)ccn2)[nH]c2ccccc2c1=O | 38 | 85 (≈ 31.3 µg/mL) | 112 | Vd [4]: 1.4 L/kg; clearance [5]: 6 mL/min/kg; Cmax [12]: 202 ng/mL; AUC(0-t) at 24 h [6]: 897 ng·h/mL; bioavailability [13]: 78%; Tmax [14]: 4 h; half-life [10]: 4.1 h; AUC(0-t) at 24 h [15]: 2240 ng·h/mL |
| Cc1c(COc2cncc(OCC3CCOCC3)c2)[nH]c2ccccc2c1=O | 133 | ≥ 100 | 238 |  |

Further lines, with some results ahead:

| CLint scaled at 0.2 µM [1] [mL/min/kg] | solubility [2] [µM] | CLint scaled at 0.2 µM [3] [mL/min/kg] | Compound | further results |
| --- | --- | --- | --- | --- |
| 45 | ≥ 100 | > 1000 | COCCOCCCCc1[nH]c2ccccc2c(=O)c1C |  |
| 53 | ≥ 100 | 295 | Cc1c(COCCCCOCC2(C)COC2)[nH]c2ccccc2c1=O |  |
|  | ≥ 100 |  | Cc1c(COCCCCO)nc2ccccc2c1O |  |
| 78 | 4 (≈ 1.46 µg/mL) | 197 | O=c1cc(COc2cccc(OCC3CCOCC3)c2)[nH]c2ccccc12 |  |
|  | 3 (≈ 1.22 µg/mL) |  | CC(C)c1c(COc2cccc(OCC3CCOCC3)c2)[nH]c2ccccc2c1=O |  |
| 473 | 2 (≈ 0.795 µg/mL) | > 1000 | Cc1c(COc2cccc(OCC3CCOCC3)c2)[nH]c2ccc(F)cc2c1=O |  |
| > 1000 | < 1 | > 1000 | Cc1c(COc2cccc(OCC3CCOCC3)c2)[nH]c2ccc(Cl)cc2c1=O |  |
|  | < 1 |  | Cc1c(COc2cccc(OCC3CCOCC3)c2)[nH]c2ccc(Br)cc2c1=O |  |
| 756 | < 1 | > 1000 | Cc1c(COc2cccc(OCC3CCOCC3)c2)[nH]c2ccc(-c3cccnc3)cc2c1=O |  |
| 95 | 22 (≈ 8.37 µg/mL) | 203 | Cc1c(COc2ccnc(OCC3CCOCC3)c2)[nH]c2ccccc2c1=O |  |
| 66 | ≥ 100 | 225 | Cc1c(COc2cncc(OCCC(C)(C)O)c2)[nH]c2ccccc2c1=O |  |
| 770 | 3 (≈ 1.14 µg/mL) | 984 | Cc1c(COc2cccc(OCC3CCOCC3)n2)[nH]c2ccccc2c1=O |  |
